In patent US20030232834A1, “Combination therapy for the prophylaxis and treatment of hyperlipidemic conditions and disorders” (priority 2002, published 2003):

What was measured:
[1] = Water uptake experiments (Dynamic Vapor Sorption); assay type: physicochemical; settings: equilibrated under 80% relative humidity (RH) air at 25° C.
Experimental: A dry sample of the crystalline form having a melting point or a decomposition point of about 278° C. to about 285° C. (i.e., Form II) typically gains less than about 1% of its own weight when equilibrated under 80% relative humidity (RH) air at 25° C. […] For the present purposes, the term “essentially 0% RH” means less than about 1% RH. The term “equilibrated” means that the change in weight of a sample over time at a given relative humidity is less than 0.0003% ((dm/dt)/m0×100, where m is mass in mg, m0 is initial mass, and t is time in minutes).
Water sorption experiments are performed on a Dynamic Vapor Sorption (DVS) apparatus (DVS-1000 manufactured by Surface Measurements Systems, Inc.). Experiments are performed at 25° C. by initially drying the material of interest (about 10 mg sample) from 30% relative humidity (RH) (ambient room condition) to about 9% RH in a stepwise fashion (10% RH step) by purging with dry nitrogen until no further weight change was observed. The samples are then exposed to a stepwise (10% RH steps) increase in RH from about 0 to about 90% RH. Each successive step is initiated when the change in weight over time at the relative humidity was less than 0.0003% ((dm/dt)/m0×100, where m is mass in mg, m0 is initial mass, and t is time in minutes). […] The data are collected on a computer and analyzed using SMS' proprietary MS-Excel macro interface software.

Male beagle dogs = test: Serum triglyceride in beagle dogs; assay type: in vivo, dog; settings: pravastatin 10 mg/kg/day dosed Weeks 1-11; Week 10; mean ± SEM, n=6
Experimental: Following this initial four week dose-ranging study, dogs from the two groups receiving 10 mg/kg/day pravastatin (a.m. and p.m. dosing groups) were randomized into two new treatment groups based on serum total cholesterol levels to initiate the combination treatment study. One group received an empty capsule (a.m. dosing) and 10 mg/kg/day pravastatin (p.m. dosing) and the other received 4.0 mg/kg/day compound A-5 (a.m. dosing) and 10 mg/kg/day pravastatin (p.m. dosing). A third group that had received empty capsules (vehicle) in the dose-ranging study was used for compound A-5 monotherapy and was administered 4.0 mg/kg/day compound A-5 (a.m. dosing) and an empty capsule (p.m. dosing). […]
Blood was collected from the cephalic vein of each dog into serum separator tubes. […] Commercial calibrator and quality control materials were analyzed with each run to verify assay accuracy and precision. […]
Serum lipid measurements were obtained as described in Example 3 above except that blood was collected from either the cephalic or jugular vein of each dog into serum separator tubes and the blood was centrifuged at 2000 rpm for 20 minutes. Table X-4A below reports the data measured on the effect of the compound A-5/pravastatin combination therapy on serum total cholesterol. […]

SMILES	weight gain of a dry sample (of its own weight) [1]	TOTAL SERUM TRIGLYCERIDE (Male beagle dogs) [mg/dL]
CCCCC1(CCCC)CS(=O)(=O)c2ccc(N(C)C)cc2[C@@H](c2ccc(OCc3ccc(C[N+]45CCN(CC4)CC5)cc3)cc2)[C@H]1O.[Cl-] [Form II, (4R,5R)-1-((4-(4-(3,3-dibutyl-7-(dimethylamino)-2,3,4,5-tetrahydro-4-hydroxy-1,1-dioxido-1-benzithiepin-5-yl)phenoxy)methyl)phenyl)methyl-4-aza-1-azoniabicyclo[2.2.2]octane chloride]	less than 1%	
CC[C@H](C)C(=O)O[C@H]1C[C@H](O)C=C2C=C[C@H](C)[C@H](CC[C@@H](O)C[C@@H](O)CC(=O)O)[C@H]21 [pravastatin, Pravastatin]		43 ± 5
